Source: patent US10287267B2, “Isoquinolin-3-yl carboxamides and preparation and use thereof” (Samumed, LLC, priority 2016, dated 2019)

Legend:
[1] = tested on: Wnt pathway (Sp5-Luc reporter, TCF/LEF binding sites) in SW480 colon carcinoma cells; experiment: Screening assay for Wnt activity: Sp5-Luc reporter gene assay; format: cell-based, human; details: Homo sapiens; Sp5-Luc reporter, SW480 cells, 36 to 48 hours;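 also: firefly luciferase luminescence read in stably transduced SW480 cells carrying the Sp5 promoter reporter with eight TCF/LEF sites, compounds given in 0.1% DMSO final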
Description: The screening assay for Wnt activity is described as follows.
Following incubation, 15 μl of BriteLite Plus luminescence reagent (Perkin Elmer) was added to each well of the 384-well assay plates. The plates were placed on an orbital shaker for 2 min and then luminescence was quantified using the Envision (Perkin Elmer) plate reader.

[2] = target: recombinant DYRK1A kinase (Homo sapiens (Human), UniProt Q13627); experiment: DYRK1A kinase assay (Ser/Thr 18 peptide Z-lyte FRET); format: biochemical; details: 30 μM ATP, 1 h room temperature;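 also: Read-out is the coumarin to fluorescein emission ratio, referenced to unphosphorylated (0%) and phosphorylated (100%) Ser/Thr 18 peptide controls, values from dose-response curves by non-linear regression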
[3] = target: recombinant GSK3β kinase (Homo sapiens (Human), UniProt P49841); experiment: GSK3β kinase assay (Ser/Thr 09 peptide Z-lyte FRET); format: biochemical; details: 46 μM ATP, 1 h room temperature;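 also: kinase activity read as coumarin to fluorescein emission ratio, 11-point threefold dilutions from 10 µM to 0.0003 µM in duplicate, unphosphorylated and phosphorylated peptide as 0% and 100% controls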
Chain of recombinant GSK3β kinase (P49841 whole entry): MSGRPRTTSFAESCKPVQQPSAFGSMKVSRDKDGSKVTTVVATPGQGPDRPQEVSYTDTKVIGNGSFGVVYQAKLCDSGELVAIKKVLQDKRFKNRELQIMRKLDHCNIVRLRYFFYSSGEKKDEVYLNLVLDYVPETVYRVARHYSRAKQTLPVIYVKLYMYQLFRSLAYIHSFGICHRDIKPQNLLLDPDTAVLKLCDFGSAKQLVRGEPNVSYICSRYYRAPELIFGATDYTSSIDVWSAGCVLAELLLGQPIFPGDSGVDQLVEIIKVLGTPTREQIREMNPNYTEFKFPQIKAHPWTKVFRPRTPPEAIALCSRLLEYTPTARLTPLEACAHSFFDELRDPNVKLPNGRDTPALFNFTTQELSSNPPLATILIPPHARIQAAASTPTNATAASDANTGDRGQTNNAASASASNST

[4] = tested on: Tau phosphorylation at Ser396 (pSer396); experiment: Tau phosphorylation assay (pSer396 ELISA / western blot) in SH-SY5Y cells; format: cell-based, human; details: Homo sapiens; SH-SY5Y cells, overnight (16-18 h) exposure; read-out: pSer396 Tau EC50;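 also: EC50 for reduction of Tau pSer396 in lysed cells, measured by colorimetric ELISA or chemiluminescent western blot, both using the same pSer396 antibody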
[5] = tested on: SW480 colon carcinoma cells; experiment: Cell viability assay (CellTiter-Glo); format: cell-based, human; details: Homo sapiens; for EC50: 96 h, SW480 cells, CellTiter-Glo, four days incubation
[6] = tested on: α-smooth muscle actin (αSMA) positive LL29 cells; experiment: Inhibition of fibrotic process: αSMA in TGF-β1 treated primary human fibroblasts from IPF patients; format: cell-based; details: Homo sapiens, Fibroblast; for EC50: 96 h, Table 8, LL29 fibroblasts from IPF patients, TGF-β1 20 ng/mL, 4 days, dose-response 10 μM to 0.94 nM;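 as to all read-outs here: controls were TGF-β1 stimulated wells with DMSO vehicle (positive) and cells given DMSO alone (negative), cultured in F12 medium with 1% fetal bovine serum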
[7] = tested on: IL-6; experiment: IL-6 inhibition in LPS-stimulated human peripheral blood mononuclear cells (HTRF); format: cell-based; details: Homo sapiens, PBMC; Table 9; huPBMCs, LPS 50 ng/mL, 22 hours; dose-response starting from 10 μM;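 also: IL-6 detected by HTRF with an XL665- and Cryptate-labelled anti-IL-6 antibody pair, samples run in duplicate, EC50 obtained from a four-parameter Levenberg-Marquardt curve fit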
Description: After 22 hour incubation, a mixture of anti-IL6 XL665 and anti-IL-6 Cryptate diluted in reconstitution buffer (Catalog #62IL6PEC, Cisbio Inc., Bedford, Mass.) was added to each well. […] All samples were processed in duplicate. […] EC50 was determined using software generated by Dotmatics Limited (Windhill Bishops Stortford Herts, UK) using the Levenberg-Marquardt 4 parameter fitting procedure with finite different gradients.

**Q.** Which EC50 [1] does the source give for `Cc1ncc(-c2ccc3cnc(NC(=O)[C@H]4CC[C@H](CN5CC(F)C5)CC4)cc3c2)o1` [Compound 1018, trans-4-((3-Fluoroazetidin-1-yl)methyl)-N-(6-(2-methyloxazol-5-yl)isoquinolin-3-yl)cyclohexane-1-carboxamide] here?
**A.** 608 nM

**Q.** And the EC50 [2]?
**A.** 2.5 nM

**Q.** What about the EC50 [3] of the same compound?
**A.** 54 nM

**Q.** What about the EC50 [4] of the same compound?
**A.** 280 nM

**Q.** What about the EC50 [5] of the same compound?
**A.** 498 nM

**Q.** What about the EC50 [6] of the same compound?
**A.** 88 nM

**Q.** What about the EC50 [7] of the same compound?
**A.** 441 nM

**Q.** With `C[C@@H]1COCCN1CC(=O)Nc1cc2cc(-c3cnn(C)c3)ccc2cn1` [Compound 342, (R)—N-(6-(1-Methyl-1H-pyrazol-4-yl)isoquinolin-3-yl)-2-(3-methylmorpholino)acetamide] as the compound, how does the EC50 [1] read?
**A.** 7220 nM

**Q.** And the EC50 [2]?
**A.** 6.5 nM

**Q.** And the EC50 [3]?
**A.** 137 nM

**Q.** What about the EC50 [4] of the same compound?
**A.** 3600 nM

**Q.** What about the EC50 [5] of the same compound?
**A.** > 10000 nM

**Q.** What about the inhibition at 10 µM ([5]; SW480, read-out: percent inhibition at 10 μM) of the same compound?
**A.** 40%

**Q.** And the EC50 [6]?
**A.** 948 nM

**Q.** And the EC50 [7]?
**A.** 4170 nM

**Q.** Which EC50 [1] does the source give for `Cn1cc(-c2ccc3cnc(NC(=O)CN4C[C@H]5C[C@@H]4CO5)cc3c2)cn1` [Compound 346, 2-((1R,4R)-2-Oxa-5-azabicyclo[2.2.1]heptan-5-yl)-N-(6-(1-methyl-1H-pyrazol-4-yl)isoquinolin-3-yl)acetamide] here?
**A.** 4360 nM

**Q.** What about the EC50 [2] of the same compound?
**A.** 9.9 nM

**Q.** What about the EC50 [3] of the same compound?
**A.** 84 nM

**Q.** What about the EC50 [4] of the same compound?
**A.** 1800 nM

**Q.** And the EC50 [5]?
**A.** 9660 nM

**Q.** And the EC50 [6]?
**A.** 965 nM

**Q.** And the EC50 [7]?
**A.** 9440 nM

**Q.** With `Cn1cc(-c2ccc3cnc(NC(=O)[C@H]4CC[C@H](CN5CC(F)C5)CC4)cc3c2)cn1` [Compound 10, trans-4-((3-Fluoroazetidin-1-yl)methyl)-N-(6-(1-methyl-1H-pyrazol-4-yl)isoquinolin-3-yl)cyclohexane-1-carboxamide] as the compound, how does the EC50 [1] read?
**A.** 277 nM

**Q.** What about the EC50 [2] of the same compound?
**A.** 1.3 nM

**Q.** What about the EC50 [3] of the same compound?
**A.** 51 nM

**Q.** And the EC50 [4]?
**A.** 227 nM

**Q.** What about the EC50 [5] of the same compound?
**A.** 324 nM

**Q.** What about the EC50 [6] of the same compound?
**A.** > 10000 nM

**Q.** What about the inhibition at 10 µM ([6]; read-out: percent value in parentheses beside EC50 >10 μM) of the same compound?
**A.** 39.6%

**Q.** And the EC50 [7]?
**A.** 399 nM

**Q.** With `CN1CCN(CC(=O)Nc2cc3cc(-c4cnn(C)c4)c(F)cc3cn2)CC1` [Compound 372, N-(7-Fluoro-6-(1-methyl-1H-pyrazol-4-yl)isoquinolin-3-yl)-2-(4-methylpiperazin-1-yl)acetamide] as the compound, how does the EC50 [1] read?
**A.** 3400 nM

**Q.** What about the EC50 [2] of the same compound?
**A.** 10.6 nM

**Q.** What about the EC50 [3] of the same compound?
**A.** 79 nM

**Q.** What about the EC50 [4] of the same compound?
**A.** 1100 nM

**Q.** What about the EC50 [5] of the same compound?
**A.** 8820 nM

**Q.** What about the EC50 [6] of the same compound?
**A.** 504 nM

**Q.** What about the EC50 [7] of the same compound?
**A.** 3660 nM

**Q.** For `Cn1cc(-c2ccc3cnc(NC(=O)[C@H]4CCCNC4)cc3c2)cn1` [Compound 110, (S)—N-(6-(1-Methyl-1H-pyrazol-4-yl)isoquinolin-3-yl)piperidine-3-carboxamide], which EC50 [1] is on record?
**A.** 1100 nM

**Q.** What about the EC50 [2] of the same compound?
**A.** 4.7 nM

**Q.** And the EC50 [3]?
**A.** 34 nM

**Q.** And the EC50 [4]?
**A.** 636 nM

**Q.** What about the EC50 [5] of the same compound?
**A.** 1050 nM

**Q.** What about the EC50 [6] of the same compound?
**A.** 286 nM

**Q.** What about the EC50 [7] of the same compound?
**A.** 484 nM

**Q.** For `O=C(Nc1cc2cc(-c3cncs3)ccc2cn1)C1CC(F)(F)C1` [Compound 699, 3,3-Difluoro-N-(6-(thiazol-5-yl)isoquinolin-3-yl)cyclobutane-1-carboxamide], which EC50 [1] is on record?
**A.** 541 nM

**Q.** What about the EC50 [2] of the same compound?
**A.** 2.1 nM

**Q.** What about the EC50 [3] of the same compound?
**A.** 24 nM

**Q.** What about the EC50 [4] of the same compound?
**A.** 423 nM

**Q.** And the EC50 [5]?
**A.** 834 nM

**Q.** And the EC50 [6]?
**A.** 234 nM

**Q.** And the EC50 [7]?
**A.** 410 nM

**Q.** For `CC(C)N1CCC(C(=O)Nc2cc3cc(-c4cnn(C)c4)ccc3cn2)CC1` [Compound 75, 1-Isopropyl-N-(6-(1-methyl-1H-pyrazol-4-yl)isoquinolin-3-yl)piperidine-4-carboxamide], which EC50 [1] is on record?
**A.** 520 nM

**Q.** What about the EC50 [2] of the same compound?
**A.** 2.6 nM

**Q.** What about the EC50 [3] of the same compound?
**A.** 64 nM

**Q.** What about the EC50 [4] of the same compound?
**A.** 227 nM

**Q.** And the EC50 [5]?
**A.** 1320 nM

**Q.** What about the EC50 [6] of the same compound?
**A.** 148 nM

**Q.** What about the EC50 [7] of the same compound?
**A.** 806 nM

**Q.** How did the EC50 [1] turn out when `CN1CCC(C(=O)Nc2cc3cc(-c4cnsc4)ccc3cn2)CC1` [Compound 970, N-(6-(Isothiazol-4-yl)isoquinolin-3-yl)-1-methylpiperidine-4-carboxamide] was run?
**A.** 1360 nM

**Q.** What about the EC50 [2] of the same compound?
**A.** 2.3 nM

**Q.** And the EC50 [3]?
**A.** 478 nM

**Q.** And the EC50 [4]?
**A.** 862 nM

**Q.** What about the EC50 [5] of the same compound?
**A.** 1260 nM

**Q.** And the EC50 [6]?
**A.** 1240 nM

**Q.** What about the EC50 [7] of the same compound?
**A.** 1130 nM
